{
  "source": "patent US4514330A",
  "about": "“Carbon-7-substituted atinomycin D analogue” (Trustees of Boston University, priority 1983, dated 1985)",
  "key": {"[1]": {"system": "human lymphoblastic leukemic cells (CCRF-CEM)", "assay": "In vitro growth-inhibitory activity against human lymphoblastic leukemic cells (CCRF-CEM) in log phase", "format": "cell-based", "conditions": "for IC50: Homo sapiens, final growth medium contained 1% Me2SO, log phase, read-out: ID50 (in vitro growth inhibition, CCRF-CEM)", "experimental": "^b Using human lymohoblastic leukemia cells in logplastic growth.\nCompounds were dissolved in Me2 So medium, final growth medium"}, "[2]": {"system": "P-388 leukemia", "assay": "In vivo antitumor activity against P-388 lymphocytic leukemia in CDF1 mice", "conditions": "for % ILS (percent increase in life span) / MST (median survival time) / cure (over 55 day survivors): days 1, 5, 9; for minimal effective dose: Mus musculus, P388, ip, read-out: MED (minimum effective dose, 40% increase in life span over control); for fold increase in survival time over AMD (1b) or 7-hydroxyactinomycin D (2b): optimal nontoxic dose levels", "method": "Studies on in vivo activity of AMD and AMD analogues were carried out with P-388 lymphocytic leukemia in CDF1 hybrid mice. The drugs were administered either daily for 4 successive days (qd 1-4) or on days 1, 5 and 9 (q4d 1, 5, 9) beginning 1 day after tumor implantation.\n^a Male CDF1 (18-23 g) mice were inoculated intraperitoneally\n(ip) with 10^6 P388 cells on day 0. Drugs were administered, also ip,\nin 10% dimethyl sulfoxidesaline on days 1, 5 and 9. Test solutions were\nkept at 0-4° C., protected from light, and the stability and\nhomogeneity were checked periodically by TLC and HPLC.\n^b MST = median survival time.\n^c % ILS = percent increase in life span.\n^d Over 55 day survivors. Average of three experiments. The\n^a Drugs administed ip once daily either for 4 successive days (qd\n1-4) or on days 1, 5 and 9 (q4d 1, 5 9), starting 1 day after tumor\n^b MED (minimum effective dose) is the dose (milligrams/kilogram)\nproviding an increase in life span of 40% over control in P388"}, "[3]": {"system": "DNA", "assay": "DNA-binding mode, covalent and noncovalent (statements)"}, "[4]": {"conditions": "three injections ip, q4d 1, 5, 9"}},
  "note": "Where two headings read alike, the source gives them in different places.",
  "data": [
    {"smiles": "Cc1c2oc3c(C)c(OCC(O)CO)cc(C(=O)N[C@@H]4C(=O)N[C@H](C(C)C)C(=O)N5CCC[C@H]5C(=O)N(C)CC(=O)N(C)[C@@H](C(C)C)C(=O)O[C@@H]4C)c3nc-2c(C(=O)N[C@@H]2C(=O)N[C@H](C(C)C)C(=O)N3CCC[C@H]3C(=O)N(C)CC(=O)N(C)[C@@H](C(C)C)C(=O)O[C@@H]2C)c(N)c1=O", "note": "(some centres unmarked) [Compound 4b, 7-(2,3-Dihydroxypropoxy) actinomycin D]", "values": [
      {"measurement": "IC50", "setting": "[1]", "result": 0.085, "unit": "µg/mL"},
      {"measurement": "times less cytotoxic than AMD", "setting": "[1]; vs AMD", "result": "about 1.5 times"},
      {"measurement": "% ILS (percent increase in life span)", "setting": "[2]; 0.15 mg/kg ip", "result": 45, "unit": "%"},
      {"measurement": "MST (median survival time)", "setting": "[2]; 0.15 mg/kg ip", "result": 16, "unit": "days"},
      {"measurement": "cure (over 55 day survivors)", "setting": "[2]; 0.15 mg/kg ip", "result": "0/7"},
      {"measurement": "% ILS (percent increase in life span)", "setting": "[2]; 0.30 mg/kg ip", "result": 82, "unit": "%"},
      {"measurement": "MST (median survival time)", "setting": "[2]; 0.30 mg/kg ip", "result": 20, "unit": "days"},
      {"measurement": "cure (over 55 day survivors)", "setting": "[2]; 0.30 mg/kg ip", "result": "2/7"},
      {"measurement": "% ILS (percent increase in life span)", "setting": "[2]; 0.60 mg/kg ip", "result": 136, "unit": "%"},
      {"measurement": "MST (median survival time)", "setting": "[2]; 0.60 mg/kg ip", "result": 25, "unit": "days"},
      {"measurement": "cure (over 55 day survivors)", "setting": "[2]; 0.60 mg/kg ip", "result": "1/7"},
      {"measurement": "% ILS (percent increase in life span)", "setting": "[2]; 1.20 mg/kg ip", "result": 191, "unit": "%"},
      {"measurement": "MST (median survival time)", "setting": "[2]; 1.20 mg/kg ip", "result": 32, "unit": "days"},
      {"measurement": "cure (over 55 day survivors)", "setting": "[2]; 1.20 mg/kg ip", "result": "0/7"},
      {"measurement": "% ILS (percent increase in life span)", "setting": "[2]; 1.80 mg/kg ip", "result": 36, "unit": "%"},
      {"measurement": "MST (median survival time)", "setting": "[2]; 1.80 mg/kg ip", "result": 15, "unit": "days"},
      {"measurement": "cure (over 55 day survivors)", "setting": "[2]; 1.80 mg/kg ip", "result": "0/7"},
      {"measurement": "minimal effective dose", "setting": "[2]; four injections ip, qd 1-4", "result": 0.125, "unit": "mg/kg"},
      {"measurement": "minimal effective dose", "setting": "[2]; [4]", "result": 0.15, "unit": "mg/kg"},
      {"measurement": "therapeutic index: MTD/MED", "setting": "[2]; four injections ip, qd 1-4", "result": 6},
      {"measurement": "fold increase in survival time over AMD (1b) or 7-hydroxyactinomycin D (2b)", "setting": "[2]; ip, q4d 1, 5, 9", "result": "~1.5", "unit": "fold"},
      {"measurement": "therapeutic index: MTD/MED", "setting": "[2]; [4]", "result": 12}
    ]},
    {"smiles": "Cc1c2oc3c(C)c(OCC4CO4)cc(C(=O)N[C@@H]4C(=O)N[C@H](C(C)C)C(=O)N5CCC[C@H]5C(=O)N(C)CC(=O)N(C)[C@@H](C(C)C)C(=O)O[C@@H]4C)c3nc-2c(C(=O)N[C@@H]2C(=O)N[C@H](C(C)C)C(=O)N3CCC[C@H]3C(=O)N(C)CC(=O)N(C)[C@@H](C(C)C)C(=O)O[C@@H]2C)c(N)c1=O", "note": "(some centres unmarked) [Compound 3b, 7-(2,3-Epoxypropoxy)actinomycin D]", "values": [
      {"measurement": "IC50", "setting": "[1]", "result": 0.009, "unit": "µg/mL"},
      {"measurement": "times more cytotoxic than AMD", "setting": "[1]; vs AMD", "result": "about sevenfold"},
      {"measurement": "% ILS (percent increase in life span)", "setting": "[2]; 0.15 mg/kg ip", "result": 164, "unit": "%"},
      {"measurement": "MST (median survival time)", "setting": "[2]; 0.15 mg/kg ip", "result": 29, "unit": "days"},
      {"measurement": "cure (over 55 day survivors)", "setting": "[2]; 0.15 mg/kg ip", "result": "0/7"},
      {"measurement": "% ILS (percent increase in life span)", "setting": "[2]; 0.30 mg/kg ip", "result": 263, "unit": "%"},
      {"measurement": "MST (median survival time)", "setting": "[2]; 0.30 mg/kg ip", "result": 40, "unit": "days"},
      {"measurement": "cure (over 55 day survivors)", "setting": "[2]; 0.30 mg/kg ip", "result": "1/7"},
      {"measurement": "% ILS (percent increase in life span)", "setting": "[2]; 0.60 mg/kg ip", "result": 255, "unit": "%"},
      {"measurement": "MST (median survival time)", "setting": "[2]; 0.60 mg/kg ip", "result": 41, "unit": "days"},
      {"measurement": "cure (over 55 day survivors)", "setting": "[2]; 0.60 mg/kg ip", "result": "1/7"},
      {"measurement": "% ILS (percent increase in life span)", "setting": "[2]; 1.20 mg/kg ip", "result": 291, "unit": "%"},
      {"measurement": "MST (median survival time)", "setting": "[2]; 1.20 mg/kg ip", "result": 43, "unit": "days"},
      {"measurement": "cure (over 55 day survivors)", "setting": "[2]; 1.20 mg/kg ip", "result": "3/7"},
      {"measurement": "% ILS (percent increase in life span)", "setting": "[2]; 1.80 mg/kg ip", "result": 300, "unit": "%"},
      {"measurement": "MST (median survival time)", "setting": "[2]; 1.80 mg/kg ip", "result": 44, "unit": "days"},
      {"measurement": "cure (over 55 day survivors)", "setting": "[2]; 1.80 mg/kg ip", "result": "3/7"},
      {"measurement": "% ILS (percent increase in life span)", "setting": "[2]; 2.40 mg/kg ip", "result": 136, "unit": "%"},
      {"measurement": "MST (median survival time)", "setting": "[2]; 2.40 mg/kg ip", "result": 26, "unit": "days"},
      {"measurement": "cure (over 55 day survivors)", "setting": "[2]; 2.40 mg/kg ip", "result": "2/7"},
      {"measurement": "minimal effective dose", "setting": "[2]; four injections ip, qd 1-4", "result": 0.0375, "unit": "mg/kg"},
      {"measurement": "minimal effective dose", "setting": "[2]; [4]", "result": 0.05, "unit": "mg/kg"},
      {"measurement": "therapeutic index: MTD/MED", "setting": "[2]; four injections ip, qd 1-4", "result": 43},
      {"measurement": "breadth of dose-response curve", "setting": "[2]; ip, q4d 1, 5, 9", "result": "very broad"},
      {"measurement": "overall activity relative to AMD", "setting": "[2]; ip, q4d 1, 5, 9", "result": "superior to AMD"},
      {"measurement": "cure (tumor free), animals out of seven treated", "setting": "[2]; optimal dose ranges of 1.2 and 1.8 mg/kg, ip, q4d 1, 5, 9", "result": "three"},
      {"measurement": "fold increase in survival time over AMD (1b) or 7-hydroxyactinomycin D (2b)", "setting": "[2]; ip, q4d 1, 5, 9", "result": "~2.5", "unit": "fold"},
      {"measurement": "therapeutic index: MTD/MED", "setting": "[2]; [4]", "result": 72},
      {"measurement": "long-term survivors", "setting": "[2]; throughout the dose range, ip, q4d 1, 5, 9", "result": "long-term survivors throughout this dose range"},
      {"measurement": "covalent binding to DNA", "setting": "[3]; 37° C. or higher, or longer incubation (~20 h)", "result": "can bind covalently to DNA"},
      {"measurement": "DNA-binding property relative to AMD", "setting": "[3]; ambient temperature", "result": "closely parallel to AMD"}
    ]}
  ]
}
